Measurements as given in patent US8940304B2, “Monoclonal antibodies against the PBP2-A protein and homologous sequences for the treatment of infections by and immunodiagnostics of bacteria of the firmicutes phylum” (priority 2009, dated 2015).

Tests used:
[1] = tested on: CEB-MRSA; test: Comparative in vivo protection antibody versus vancomycin, renal quantification, Assay I; set-up: species or system Staphylococcus aureus
Description: Four groups of female 8-week Balb/C mice (4 animals per group) received an infective dose of 6.0×10^7 bacteria (CEB-MRSA) by intraperitoneal route. The animals received doses of purified monoclonal antibody (MAB), vancomycin, MAB+vancomycin, and negative control, according to the groups below:
group 1: MAB (400 micrograms) (first day)
group 2: vancomycin (150 micrograms, intramuscular route, 12/12 hours)
group 3: vancomycin+MAB (350 micrograms) (1 day after infection)
The first doses of antibody and vancomycin were administered 4 hours after the administration of the infective dose. The animals were subjected to euthanasia in the fourth day, and the kidneys were aseptically removed and subjected to renal qualification, according to what was previously described.
In this study, the animals were infected and the administration of the antimicrobial or monoclonal antibodies was started just after four hours of infection. The study was conducted with three distinct groups: one treated with vancomycin, other treated with monoclonal antibodies, and a third one with simultaneous administration of antimicrobial+antibodies. Vancomycin doses were adjusted and administered in a way similar to the cases of infections in humans (500 mg every 12 hours).

[2] = tested on: CEB MRSA; test: Comparative in vivo protection antibody versus vancomycin, renal quantification, Assay II; set-up: species or system Staphylococcus aureus; settings: antibody 500 μg
Description: This assay was performed in the same way as the previous one, but, with a lower infective dose (7.0×10^6 bacteria), with the group 1 being treated with 500 micrograms of purified monoclonal antibody; group 2 being treated with vancomycin (150 micrograms, intramuscular route, 12/12 hours; 5 doses); group 3 being treated with vancomycin+500 micrograms of monoclonal antibody; and group 4 being control (non-treated animals).

**Q.** Which results are given for `CN[C@H](CC(C)C)C(=O)N[C@H]1C(=O)N[C@@H](CC(N)=O)C(=O)N[C@H]2C(=O)N[C@H]3C(=O)N[C@H](C(=O)N[C@H](C(=O)O)c4cc(O)cc(O)c4-c4cc3ccc4O)[C@H](O)c3ccc(c(Cl)c3)Oc3cc2cc(c3O[C@@H]2O[C@H](CO)[C@@H](O)[C@H](O)[C@H]2O[C@H]2C[C@](C)(N)[C@H](O)[C@H](C)O2)Oc2ccc(cc2Cl)[C@H]1O` [vancomycin]?
**A.** reduction in the quantity of bacteria present in the kidneys versus non-treated animals ([1]; Assay I: 6.0×10^7 bacteria CEB MRSA IP, treatment from 4 hours after infection, three days after infection, vancomycin every 12 hours (5 doses)): around 15 times; bacteria recovered from kidneys, mean of group ([1]; Assay I: 6.0×10^7 bacteria CEB MRSA, antibody 400 μg, vancomycin 5 doses, antibody (300 μg)+vancomycin): 172,250 bacteria; bacteria recovered from kidneys, mean of group ([2]; Assay II: 7.0×10^6 bacteria CEB MRSA, vancomycin every 12 hours (5 doses), antibody (500 μg)+vancomycin): 720 bacteria; reduction of bacteria in kidneys versus non-treated animals ([2]; Assay II: lower infective dose 7.0×10^6 bacteria CEB MRSA, vancomycin 5 doses, combination): 35 times
